# Laboratory results published in patent US4560509A, “Antibiotic A39079 factor S-1” (Eli Lilly and Company, priority 1983, dated 1985).
# Positions of bridges follow the written chain, without caps; N, C: chain ends. Non-standard residues stand in square brackets, D forms with d. Residues, ends and D or L forms follow the SMILES beside them. *: point of attachment. Ileψ(thiazoline)Cys = CC[C@H](C)[C@H](N)C1=N[C@H](C(=O)*)CS1; dOrn = NCCC[C@@H](N)C(=O)O
# Tests used:
# Format in all cases: cell-based
# [1] = test system: Streptomyces spheroides NRRL 15600; assay: antibiotic sensitivity of the producing culture
# From the text: In classifying the microorganism as a new strain of S. spheroides, the methods recommended by the International Streptomyces Project (ISP) for the characterization of Streptomyces species [E. B. Shirling and D. Gottlieb, "Methods of Characterization of Streptomyces species," Int. J. Syst. Bacteriol. 16(3), 313-340 (1966)] were followed along with certain supplementary tests.
# [2] = test system: Streptococcus pyogenes C203; assay: standard agar-dilution MIC assay
# From the text: (§1) Table V summarizes the minimal inhibitory concentrations (MIC) at which factor S-1 inhibits certain organisms as determined by standard agar-dilution assays. In Table V, the activity of factor S-1 is compared with that of rifampin.
# [3] = test system: Pseudomonas aeruginosa X239; assay: standard agar-dilution MIC assay; details: Pseudomonas aeruginosa, X239
# From the text: as §1
# Serratia marcescens X99 = assay: standard agar-dilution MIC assay; details: Serratia marcescens, X99
# From the text: as §1
# [4] = test system: Staphylococcus aureus V41; assay: standard agar-dilution MIC assay; details: Staphylococcus aureus, V41
# From the text: as §1
# Proteus inconstans PR33 = assay: standard agar-dilution MIC assay; details: Providencia alcalifaciens, PR33
# From the text: as §1
# Escherichia coli EC14 = assay: standard agar-dilution MIC assay
# From the text: as §1
# Enterobacter cloacae EB5 = assay: standard agar-dilution MIC assay; details: Enterobacter cloacae, EB5
# From the text: as §1
# [5] = test system: Staphylococcus epidermidis 222; assay: standard agar-dilution MIC assay; details: Staphylococcus epidermidis, 222
# From the text: as §1
# [6] = test system: Pseudomonas aeruginosa Ps18; assay: standard agar-dilution MIC assay
# From the text: as §1
# [7] = test system: Enterobacter aerogenes EB17; assay: standard agar-dilution MIC assay; details: Klebsiella aerogenes, EB17
# From the text: as §1
# Escherichia coli TEM = assay: standard agar-dilution MIC assay
# From the text: as §1
# Escherichia coli N10 = assay: standard agar-dilution MIC assay
# From the text: as §1
# Salmonella typhi X514 = assay: standard agar-dilution MIC assay; details: Salmonella enterica
# From the text: as §1
# [8] = test system: Klebsiella pneumoniae KAE; assay: standard agar-dilution MIC assay; details: Klebsiella pneumoniae
# From the text: as §1
# [9] = test system: Streptococcus pneumoniae Park 1; assay: standard agar-dilution MIC assay; details: Streptococcus pneumoniae, PARK1
# From the text: as §1
# Salmonella typhi 1335 = assay: standard agar-dilution MIC assay; details: Salmonella enterica
# From the text: as §1
# Proteus morganii PR15 = assay: standard agar-dilution MIC assay; details: Morganella morganii, PR15
# From the text: as §1
# [10] = test system: Streptococcus sp. group D 9960; assay: standard agar-dilution MIC assay; details: Streptococcus
# From the text: as §1
# Shigella sonnei N9 = assay: standard agar-dilution MIC assay
# From the text: as §1
# [11] = test system: Staphylococcus epidermidis EPI1; assay: standard agar-dilution MIC assay
# From the text: as §1
# Proteus rettgeri C24 = assay: standard agar-dilution MIC assay; details: Providencia rettgeri, C24
# From the text: as §1
# [12] = test system: Enterobacter cloacae 265A; assay: standard agar-dilution MIC assay; details: Enterobacter cloacae, 265A
# From the text: as §1
# [13] = test system: Pseudomonas aeruginosa X528; assay: standard agar-dilution MIC assay; details: Pseudomonas aeruginosa, X528
# From the text: as §1
# [14] = test system: Staphylococcus aureus X400; assay: standard agar-dilution MIC assay; details: Staphylococcus aureus, X400
# From the text: as §1
# [15] = test system: Staphylococcus aureus NRRL B313; assay: standard agar-dilution MIC assay; details: Staphylococcus aureus, NRRLB313
# From the text: as §1
# [16] = test system: Staphylococcus aureus S13E; assay: standard agar-dilution MIC assay
# From the text: as §1
# [17] = test system: Streptococcus faecium ATCC 9790; assay: standard agar-dilution MIC assay; details: Enterococcus faecium, ATCC9790
# From the text: as §1
# Serratia marcescens SE3 = assay: standard agar-dilution MIC assay; details: Serratia marcescens, SE3
# From the text: as §1
# [18] = test system: Citrobacter freundii CF17; assay: standard agar-dilution MIC assay; details: Citrobacter freundii, CF17
# From the text: as §1
# [19] = test system: Klebsiella pneumoniae X68; assay: standard agar-dilution MIC assay; details: Klebsiella pneumoniae, X68
# From the text: as §1
# [20] = test system: Enterobacter aerogenes C32; assay: standard agar-dilution MIC assay; details: Klebsiella aerogenes, C32
# From the text: as §1
# [21] = test system: Klebsiella pneumoniae X26; assay: standard agar-dilution MIC assay; details: Klebsiella pneumoniae, X26
# From the text: as §1
# Neurospora crassa = assay: antibiotic activity of column fractions
# Procedure: (§2) Whole broth (100 L), prepared in a manner similar to that of Example 1, Section B, was filtered using a filter aid (Hyflo Supercel, Johns-ManvilleCorp.). The filtered broth (86 L) is adjusted to pH 2 with 5N hydrochloric acid and then is extracted twice with ethyl acetate (1/2 volumes). The ethyl acetate extracts are concentrated under vacuum to give an oily residue (49 g). This residue is dissolved in methanol and placed on a 10-L Diaion HP-20 column (Mitsubishi Industries). The column is washed with water (500 ml) and eluted with acetonitrile:water (30 L of 3:7 and 50 L of 3:2) and acetonitrile (20 L). Elution is carried out at a rate of 100 ml/min., collecting 4-liter fractions. Fractions are tested for antibiotic activity against Micrococcus luteus, Escherichia coli, and Neurospora crassa.
# Escherichia coli = assay: antibiotic activity of column fractions
# Procedure: as §2
molecule,measurement,setting,value
Nc1ccc(S(=O)(=O)Nc2ncccn2)cc1 [sulfadiazine],resistance / sensitivity of the culture to antibiotic,[1],sensitive
"CO[C@H]1/C=C/O[C@@]2(C)Oc3c(C)c(O)c4c(O)c(c(/C=N/N5CCN(C)CC5)c(O)c4c3C2=O)NC(=O)/C(C)=C\C=C\[C@H](C)[C@H](O)[C@@H](C)[C@@H](O)[C@@H](C)[C@H](OC(C)=O)[C@@H]1C [Rifampin, reference compound]",MIC,[2],0.25 µg/mL
same,MIC,[3],16 µg/mL
same,MIC,Serratia marcescens X99,32 µg/mL
same,MIC,[4],0.015 µg/mL
same,MIC,Proteus inconstans PR33,16 µg/mL
same,MIC,Escherichia coli EC14,16 µg/mL
same,MIC,Enterobacter cloacae EB5,32 µg/mL
same,MIC,[5],0.06 µg/mL
same,MIC,[6],> 128 µg/mL
same,MIC,[7],32 µg/mL
same,MIC,Escherichia coli TEM,128 µg/mL
same,MIC,Escherichia coli N10,16 µg/mL
same,MIC,Salmonella typhi X514,16 µg/mL
same,MIC,[8],32 µg/mL
same,MIC,[9],0.125 µg/mL
same,MIC,Salmonella typhi 1335,16 µg/mL
same,MIC,Proteus morganii PR15,32 µg/mL
same,MIC,[10],2 µg/mL
same,MIC,Shigella sonnei N9,16 µg/mL
same,MIC,[11],0.06 µg/mL
same,MIC,Proteus rettgeri C24,8 µg/mL
same,MIC,[12],32 µg/mL
same,MIC,[13],16 µg/mL
same,MIC,[14],0.06 µg/mL
same,MIC,[15],0.03 µg/mL
same,MIC,[16],0.03 µg/mL
same,MIC,[17],2 µg/mL
same,MIC,Serratia marcescens SE3,64 µg/mL
same,MIC,[18],16 µg/mL
same,MIC,[19],16 µg/mL
same,MIC,[20],32 µg/mL
same,MIC,[21],16 µg/mL
same,resistance / sensitivity of the culture to antibiotic,[1],resistant
CC(=O)OCC1=C(C(=O)O)N2C(=O)[C@@H](NC(=O)Cc3cccs3)[C@H]2SC1 [cephalothin],resistance / sensitivity of the culture to antibiotic,[1],sensitive
polymyxin B,resistance / sensitivity of the culture to antibiotic,[1],sensitive
CCn1cc(C(=O)O)c(=O)c2ccc(C)nc21 [nalidixic acid],resistance / sensitivity of the culture to antibiotic,[1],resistant
CN[C@H](CC(C)C)C(=O)N[C@H]1C(=O)N[C@@H](CC(N)=O)C(=O)N[C@H]2C(=O)N[C@H]3C(=O)N[C@H](C(=O)N[C@H](C(=O)O)c4cc(O)cc(O)c4-c4cc3ccc4O)[C@H](O)c3ccc(c(Cl)c3)Oc3cc2cc(c3O[C@@H]2O[C@H](CO)[C@@H](O)[C@H](O)[C@H]2O[C@H]2C[C@](C)(N)[C@H](O)[C@H](C)O2)Oc2ccc(cc2Cl)[C@H]1O [vancomycin],resistance / sensitivity of the culture to antibiotic,[1],sensitive
[H]/N=C(/N)N[C@H]1[C@H](O)[C@@H](O)[C@H](O[C@@H]2O[C@@H](C)[C@](O)(C=O)[C@H]2O[C@@H]2O[C@@H](CO)[C@H](O)[C@@H](O)[C@@H]2NC)[C@@H](N/C(N)=N\[H])[C@@H]1O [streptomycin],resistance / sensitivity of the culture to antibiotic,[1],sensitive
CN(C)[C@@H]1C(O)=C(C(N)=O)C(=O)[C@@]2(O)C(O)=C3C(=O)c4c(O)cccc4[C@@](C)(O)[C@H]3C[C@@H]12 [tetracycline],resistance / sensitivity of the culture to antibiotic,[1],sensitive
C[C@@H]1C[C@@H]([C@H](O)CC2CC(=O)NC(=O)C2)C(=O)[C@@H](C)C1 [Cycloheximide],activity against N. crassa,Neurospora crassa,active
CC1(C)S[C@@H]2[C@H](NC(=O)Cc3ccccc3)C(=O)N2[C@H]1C(=O)O [penicillin G],resistance / sensitivity of the culture to antibiotic,[1],sensitive
gentamicin,resistance / sensitivity of the culture to antibiotic,[1],sensitive
CCC[C@@H]1C[C@@H](C(=O)N[C@@H]([C@H]2O[C@H](SC)[C@H](O)[C@@H](O)[C@H]2O)[C@@H](C)O)N(C)C1 [lincomycin],resistance / sensitivity of the culture to antibiotic,[1],resistant
CC[C@H]1OC(=O)[C@H](C)[C@@H](O[C@H]2C[C@@](C)(OC)[C@@H](O)[C@H](C)O2)[C@H](C)[C@@H](O[C@@H]2O[C@H](C)C[C@H](N(C)C)[C@H]2O)[C@](C)(O)C[C@@H](C)C(=O)[C@H](C)[C@@H](O)[C@]1(C)O [erythromycin],resistance / sensitivity of the culture to antibiotic,[1],sensitive
CO[C@@H]1[C@@H](OC(N)=O)[C@@H](O)[C@H](Oc2ccc3c(O)c(NC(=O)c4ccc(O)c(CC=C(C)C)c4)c(=O)oc3c2C)OC1(C)C [novobiocin],resistance / sensitivity of the culture to antibiotic,[1],sensitive
CC[C@H](C)[C@H](N)C1=N[C@H](C(=O)N[C@@H](CC(C)C)C(=O)N[C@H](CCC(=O)O)C(=O)N[C@H](C(=O)N[C@H]2CCCCNC(=O)[C@H](CC(N)=O)NC(=O)[C@@H](CC(=O)O)NC(=O)[C@H](Cc3cnc[nH]3)NC(=O)[C@@H](Cc3ccccc3)NC(=O)[C@H]([C@@H](C)CC)NC(=O)[C@@H](CCCN)NC2=O)[C@@H](C)CC)CS1 [bacitracin] ({Ileψ(thiazoline)Cys}-L[dE]IK[dOrn]I[dF]H[dD]N; lactam 4-C),resistance / sensitivity of the culture to antibiotic,[1],sensitive
NC[C@@H]1O[C@H](O[C@H]2[C@@H](O)[C@H](O[C@@H]3[C@@H](O)[C@H](N)C[C@H](N)[C@H]3O[C@H]3O[C@H](CN)[C@@H](O)[C@H](O)[C@H]3N)O[C@@H]2CO)[C@H](N)[C@@H](O)[C@@H]1O [neomycin],resistance / sensitivity of the culture to antibiotic,[1],sensitive
O=C(N[C@H](CO)[C@H](O)c1ccc([N+](=O)[O-])cc1)C(Cl)Cl [Chloramphenicol],activity against E. coli,Escherichia coli,active
same,resistance / sensitivity of the culture to antibiotic,[1],resistant
